# Test results from patent US9980943B2, “Methods of treating muscular dystrophy” (BOARD OF REGENTS OF THE NEVADA SYSTEM OF HIGHER EDUCATION, …, priority 2013, dated 2018).
# Columns and labels:
# Format in all cases: cell-based, mouse
# [1] = system: α7 integrin (LacZ reporter in α7βgal+/− myoblasts); experiment: Myoblast α7+/LacZ integrin FDG assay (Burkin assay in myoblasts, 96-well); details: 96-well; for Burkin Assay in Myoblasts, signal relative to DMSO: α7+/LacZ myoblasts; for Burkin Assay in Myoblasts, value relative to DMSO: SU9516 analogs, N=3-6
# [2] = system: β-galactosidase in CMV-LacZ C2C12 myotubes; experiment: CMV-LacZ secondary screen in C2C12 myotubes (β-Gal stabilizing assay); details: for CMV-LACZ in Myotubes, signal relative to DMSO: C2C12 CMV-LacZ myotubes, fold relative to DMSO; for CMV-LACZ in Myotubes, value relative to DMSO: SU9516 analogs, C2C12 CMV-LacZ, N=2
# Summary of the method: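 A secondary screen identifies compounds that stabilize β-gal independently of the native promoter, using CMV-LacZ C2C12 cells. Curves span 0.5–40 μM at six levels, in duplicate.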
# [3] = system: β-galactosidase in CMV-LacZ C2C12 myoblasts; experiment: CMV-LacZ secondary screen in C2C12 myoblasts (β-Gal stabilizing assay); details: for CMV-LACZ in Myoblasts (β-galactosidase activity relative to DMSO): CMV-LacZ C2C12 myoblasts; for CMV-LACZ in Myoblasts, value relative to DMSO: SU9516 analogs, C2C12 CMV-LacZ, N=2
# Summary of the method: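 CMV-LacZ C2C12 line (clonal, FDG-screened); myoblasts/myotubes dosed 0.5–40 μM (0.5, 1, 5, 10, 20, 40 μM); n=2 per point; β-gal stabilization read-out.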
# [4] = system: α7 integrin (LacZ reporter in α7+/LacZ myotubes); experiment: Myotube α7 integrin FDG assay (Burkin assay in myotubes, 96-well); details: for Burkin Assay in Myotubes, value relative to DMSO: SU9516 analogs, 96-well, N=3-6
smiles,measurement,setting,value
CCC(=O)c1ccc(OCC(O)CN2CC(C)OC(C)C2)cc1.O=C(O)C(=O)O (stereo not drawn) [MLS000053342-01],"Burkin Assay in Myoblasts, signal relative to DMSO",[1]; 0.5 uM,1.222
same,"Burkin Assay in Myoblasts, signal relative to DMSO",[1]; 1 uM,1.088
same,"Burkin Assay in Myoblasts, signal relative to DMSO",[1]; 5 uM,0.9766
same,"Burkin Assay in Myoblasts, signal relative to DMSO",[1]; 10 uM,0.8668
same,"Burkin Assay in Myoblasts, signal relative to DMSO",[1]; 20 uM,1.0354
same,"Burkin Assay in Myoblasts, signal relative to DMSO",[1]; 40 uM,1.022
same,"CMV-LACZ in Myotubes, signal relative to DMSO",[2]; 0.5 uM,0.9947
same,"CMV-LACZ in Myotubes, signal relative to DMSO",[2]; 1 uM,0.9863
same,"CMV-LACZ in Myotubes, signal relative to DMSO",[2]; 5 uM,0.9033
same,"CMV-LACZ in Myotubes, signal relative to DMSO",[2]; 10 uM,0.9187
same,"CMV-LACZ in Myotubes, signal relative to DMSO",[2]; 20 uM,1.3044
same,"CMV-LACZ in Myotubes, signal relative to DMSO",[2]; 40 uM,1.1344
same,CMV-LACZ in Myoblasts (β-galactosidase activity relative to DMSO),[3]; 0.5 uM,1.0289
same,CMV-LACZ in Myoblasts (β-galactosidase activity relative to DMSO),[3]; 1 uM,1.0397
same,CMV-LACZ in Myoblasts (β-galactosidase activity relative to DMSO),[3]; 5 uM,1.0865
same,CMV-LACZ in Myoblasts (β-galactosidase activity relative to DMSO),[3]; 10 uM,0.8785
same,CMV-LACZ in Myoblasts (β-galactosidase activity relative to DMSO),[3]; 20 uM,0.9811
same,CMV-LACZ in Myoblasts (β-galactosidase activity relative to DMSO),[3]; 40 uM,0.9930
same,"Burkin Assay in Myotubes, α7 integrin LacZ reporter signal relative to DMSO",[4]; 0.5 uM,1.059
same,"Burkin Assay in Myotubes, α7 integrin LacZ reporter signal relative to DMSO",[4]; 1 uM,1.011
same,"Burkin Assay in Myotubes, α7 integrin LacZ reporter signal relative to DMSO",[4]; 5 uM,1.002
same,"Burkin Assay in Myotubes, α7 integrin LacZ reporter signal relative to DMSO",[4]; 10 uM,1.03
same,"Burkin Assay in Myotubes, α7 integrin LacZ reporter signal relative to DMSO",[4]; 20 uM,1.049
same,"Burkin Assay in Myotubes, α7 integrin LacZ reporter signal relative to DMSO",[4]; 40 uM,1.11
CC(=O)Nc1ccc(NC(=O)C/C(C)=N/NC(=O)COc2cc(C)c(Br)cc2Br)cc1 [MLS000912562-01],"Burkin Assay in Myoblasts, signal relative to DMSO",[1]; 0.5 uM,0.7697
same,"Burkin Assay in Myoblasts, signal relative to DMSO",[1]; 1 uM,0.929
same,"Burkin Assay in Myoblasts, signal relative to DMSO",[1]; 5 uM,1.039
same,"Burkin Assay in Myoblasts, signal relative to DMSO",[1]; 10 uM,0.9253
same,"Burkin Assay in Myoblasts, signal relative to DMSO",[1]; 20 uM,0.6911
same,"Burkin Assay in Myoblasts, signal relative to DMSO",[1]; 40 uM,0.5552
same,"CMV-LACZ in Myotubes, signal relative to DMSO",[2]; 0.5 uM,1.0905
same,"CMV-LACZ in Myotubes, signal relative to DMSO",[2]; 1 uM,0.8924
same,"CMV-LACZ in Myotubes, signal relative to DMSO",[2]; 5 uM,0.9602
same,"CMV-LACZ in Myotubes, signal relative to DMSO",[2]; 10 uM,1.1674
same,"CMV-LACZ in Myotubes, signal relative to DMSO",[2]; 20 uM,1.2090
same,"CMV-LACZ in Myotubes, signal relative to DMSO",[2]; 40 uM,1.2780
same,CMV-LACZ in Myoblasts (β-galactosidase activity relative to DMSO),[3]; 0.5 uM,0.8680
same,CMV-LACZ in Myoblasts (β-galactosidase activity relative to DMSO),[3]; 1 uM,0.9150
same,CMV-LACZ in Myoblasts (β-galactosidase activity relative to DMSO),[3]; 5 uM,0.7103
same,CMV-LACZ in Myoblasts (β-galactosidase activity relative to DMSO),[3]; 10 uM,0.6246
same,CMV-LACZ in Myoblasts (β-galactosidase activity relative to DMSO),[3]; 20 uM,1.0302
same,CMV-LACZ in Myoblasts (β-galactosidase activity relative to DMSO),[3]; 40 uM,0.8747
same,"Burkin Assay in Myotubes, α7 integrin LacZ reporter signal relative to DMSO",[4]; 0.5 uM,0.898
same,"Burkin Assay in Myotubes, α7 integrin LacZ reporter signal relative to DMSO",[4]; 1 uM,0.8582
same,"Burkin Assay in Myotubes, α7 integrin LacZ reporter signal relative to DMSO",[4]; 5 uM,0.929
same,"Burkin Assay in Myotubes, α7 integrin LacZ reporter signal relative to DMSO",[4]; 10 uM,0.8748
same,"Burkin Assay in Myotubes, α7 integrin LacZ reporter signal relative to DMSO",[4]; 20 uM,0.8872
same,"Burkin Assay in Myotubes, α7 integrin LacZ reporter signal relative to DMSO",[4]; 40 uM,0.7024
Cc1ccc2c(c1)/C(=C/c1ccccc1F)C(=O)N2 [MLS001202330-01],"Burkin Assay in Myoblasts, value relative to DMSO",[1]; 0.5 uM,0.9738
same,"Burkin Assay in Myoblasts, value relative to DMSO",[1]; 1 uM,1.028
same,"Burkin Assay in Myoblasts, value relative to DMSO",[1]; 5 uM,0.9558
same,"Burkin Assay in Myoblasts, value relative to DMSO",[1]; 10 uM,0.9341
same,"Burkin Assay in Myoblasts, value relative to DMSO",[1]; 20 uM,0.8305
same,"Burkin Assay in Myoblasts, value relative to DMSO",[1]; 40 uM,0.6468
same,"CMV-LACZ in Myotubes, value relative to DMSO",[2]; 0.5 uM,0.8314
same,"CMV-LACZ in Myotubes, value relative to DMSO",[2]; 1 uM,0.9562
same,"CMV-LACZ in Myotubes, value relative to DMSO",[2]; 5 uM,0.9600
same,"CMV-LACZ in Myotubes, value relative to DMSO",[2]; 10 uM,0.8717
same,"CMV-LACZ in Myotubes, value relative to DMSO",[2]; 20 uM,0.9168
same,"CMV-LACZ in Myotubes, value relative to DMSO",[2]; 40 uM,0.8242
same,"CMV-LACZ in Myoblasts, value relative to DMSO",[3]; 0.5 uM,0.7417
same,"CMV-LACZ in Myoblasts, value relative to DMSO",[3]; 1 uM,0.9325
same,"CMV-LACZ in Myoblasts, value relative to DMSO",[3]; 5 uM,1.0099
same,"CMV-LACZ in Myoblasts, value relative to DMSO",[3]; 10 uM,0.9082
same,"CMV-LACZ in Myoblasts, value relative to DMSO",[3]; 20 uM,0.9511
same,"CMV-LACZ in Myoblasts, value relative to DMSO",[3]; 40 uM,0.7619
same,"Burkin Assay in Myotubes, value relative to DMSO",[4]; 0.5 uM,0.9709
same,"Burkin Assay in Myotubes, value relative to DMSO",[4]; 1 uM,0.9174
same,"Burkin Assay in Myotubes, value relative to DMSO",[4]; 5 uM,0.9123
same,"Burkin Assay in Myotubes, value relative to DMSO",[4]; 10 uM,1.017
same,"Burkin Assay in Myotubes, value relative to DMSO",[4]; 20 uM,0.6303
same,"Burkin Assay in Myotubes, value relative to DMSO",[4]; 40 uM,0.6207
